Data as given in the Kinase Knowledgebase extract (Sharma et al. 2016).

Experiments:
PIK3CA (human) [1] = molecular target: PIK3CA (human) (UniProt P42336); test: Cell-Based Assay; settings: rat-1
PIK3CG (human) [2] = molecular target: PIK3CG (human) (UniProt P48736); test: Cell-Based Assay; settings: u937
PIK3CD (Human) [3] = molecular target: PIK3CD (Human) (UniProt O00329); test: Cell-Based Assay; settings: rat-1
PIK3CA (human) [4] = molecular target: PIK3CA (human) (UniProt P42336); test: Enzyme Assay
PIK3CG (human) [5] = molecular target: PIK3CG (human) (UniProt P48736); test: Enzyme Assay
PIK3CD (Human) [6] = molecular target: PIK3CD (Human) (UniProt O00329); test: Enzyme Assay

Sequence of PIK3CG (human) (P48736 whole entry, looked up): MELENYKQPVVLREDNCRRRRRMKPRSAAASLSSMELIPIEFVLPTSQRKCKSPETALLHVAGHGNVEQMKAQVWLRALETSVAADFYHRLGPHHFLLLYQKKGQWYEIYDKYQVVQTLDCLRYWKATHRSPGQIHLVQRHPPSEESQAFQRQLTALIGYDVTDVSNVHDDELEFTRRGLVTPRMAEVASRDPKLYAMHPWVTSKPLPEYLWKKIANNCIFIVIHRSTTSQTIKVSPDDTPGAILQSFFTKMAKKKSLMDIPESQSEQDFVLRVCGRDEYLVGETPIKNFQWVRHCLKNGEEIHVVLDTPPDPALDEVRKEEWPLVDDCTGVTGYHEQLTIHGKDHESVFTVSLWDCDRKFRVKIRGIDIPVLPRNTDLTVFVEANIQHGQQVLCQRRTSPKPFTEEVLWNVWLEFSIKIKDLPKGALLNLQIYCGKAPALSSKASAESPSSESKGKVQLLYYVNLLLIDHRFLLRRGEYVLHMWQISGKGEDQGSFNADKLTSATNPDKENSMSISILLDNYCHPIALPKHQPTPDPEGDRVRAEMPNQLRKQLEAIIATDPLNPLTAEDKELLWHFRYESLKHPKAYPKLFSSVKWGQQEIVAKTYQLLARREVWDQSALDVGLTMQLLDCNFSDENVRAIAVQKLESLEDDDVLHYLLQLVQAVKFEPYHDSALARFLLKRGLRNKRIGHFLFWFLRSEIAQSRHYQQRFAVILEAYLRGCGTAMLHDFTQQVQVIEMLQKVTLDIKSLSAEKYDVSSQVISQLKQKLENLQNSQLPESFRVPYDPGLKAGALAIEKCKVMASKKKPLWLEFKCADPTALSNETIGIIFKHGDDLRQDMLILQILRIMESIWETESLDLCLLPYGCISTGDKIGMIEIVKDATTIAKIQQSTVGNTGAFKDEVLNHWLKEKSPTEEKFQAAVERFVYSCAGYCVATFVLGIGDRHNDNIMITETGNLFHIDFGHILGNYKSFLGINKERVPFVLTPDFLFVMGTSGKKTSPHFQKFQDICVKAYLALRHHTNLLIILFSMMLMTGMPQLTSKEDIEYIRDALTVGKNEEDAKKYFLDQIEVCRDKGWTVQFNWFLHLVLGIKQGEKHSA
Sequence of PIK3CA (human) (P42336 whole entry, looked up): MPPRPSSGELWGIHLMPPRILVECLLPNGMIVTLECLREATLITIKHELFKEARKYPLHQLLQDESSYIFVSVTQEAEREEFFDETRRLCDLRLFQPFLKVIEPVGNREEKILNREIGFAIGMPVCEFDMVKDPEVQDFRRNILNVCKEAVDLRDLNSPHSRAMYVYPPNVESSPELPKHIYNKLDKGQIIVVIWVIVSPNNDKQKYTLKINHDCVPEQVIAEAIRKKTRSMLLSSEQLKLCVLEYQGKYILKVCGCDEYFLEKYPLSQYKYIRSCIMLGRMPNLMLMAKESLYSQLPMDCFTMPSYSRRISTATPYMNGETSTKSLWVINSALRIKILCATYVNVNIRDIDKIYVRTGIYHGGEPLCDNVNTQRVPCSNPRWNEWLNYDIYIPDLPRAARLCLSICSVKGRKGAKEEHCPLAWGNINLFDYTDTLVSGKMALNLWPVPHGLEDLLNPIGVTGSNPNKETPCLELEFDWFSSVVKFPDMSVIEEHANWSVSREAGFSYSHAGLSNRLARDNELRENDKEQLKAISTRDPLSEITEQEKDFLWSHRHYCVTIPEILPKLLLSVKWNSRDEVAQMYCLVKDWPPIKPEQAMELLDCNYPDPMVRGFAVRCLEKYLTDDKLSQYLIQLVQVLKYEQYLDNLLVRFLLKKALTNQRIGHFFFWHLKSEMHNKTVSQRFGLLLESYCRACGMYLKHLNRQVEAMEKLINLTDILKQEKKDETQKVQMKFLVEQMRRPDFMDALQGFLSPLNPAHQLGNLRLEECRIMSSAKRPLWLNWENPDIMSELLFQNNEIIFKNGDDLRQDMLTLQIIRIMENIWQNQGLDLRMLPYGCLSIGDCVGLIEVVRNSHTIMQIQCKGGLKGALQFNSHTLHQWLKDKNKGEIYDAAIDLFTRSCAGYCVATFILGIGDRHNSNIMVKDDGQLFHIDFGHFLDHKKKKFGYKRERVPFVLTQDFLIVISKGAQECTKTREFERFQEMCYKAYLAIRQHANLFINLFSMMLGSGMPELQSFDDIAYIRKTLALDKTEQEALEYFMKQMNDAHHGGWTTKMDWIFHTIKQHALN
Sequence of PIK3CD (Human) (O00329 whole entry, looked up): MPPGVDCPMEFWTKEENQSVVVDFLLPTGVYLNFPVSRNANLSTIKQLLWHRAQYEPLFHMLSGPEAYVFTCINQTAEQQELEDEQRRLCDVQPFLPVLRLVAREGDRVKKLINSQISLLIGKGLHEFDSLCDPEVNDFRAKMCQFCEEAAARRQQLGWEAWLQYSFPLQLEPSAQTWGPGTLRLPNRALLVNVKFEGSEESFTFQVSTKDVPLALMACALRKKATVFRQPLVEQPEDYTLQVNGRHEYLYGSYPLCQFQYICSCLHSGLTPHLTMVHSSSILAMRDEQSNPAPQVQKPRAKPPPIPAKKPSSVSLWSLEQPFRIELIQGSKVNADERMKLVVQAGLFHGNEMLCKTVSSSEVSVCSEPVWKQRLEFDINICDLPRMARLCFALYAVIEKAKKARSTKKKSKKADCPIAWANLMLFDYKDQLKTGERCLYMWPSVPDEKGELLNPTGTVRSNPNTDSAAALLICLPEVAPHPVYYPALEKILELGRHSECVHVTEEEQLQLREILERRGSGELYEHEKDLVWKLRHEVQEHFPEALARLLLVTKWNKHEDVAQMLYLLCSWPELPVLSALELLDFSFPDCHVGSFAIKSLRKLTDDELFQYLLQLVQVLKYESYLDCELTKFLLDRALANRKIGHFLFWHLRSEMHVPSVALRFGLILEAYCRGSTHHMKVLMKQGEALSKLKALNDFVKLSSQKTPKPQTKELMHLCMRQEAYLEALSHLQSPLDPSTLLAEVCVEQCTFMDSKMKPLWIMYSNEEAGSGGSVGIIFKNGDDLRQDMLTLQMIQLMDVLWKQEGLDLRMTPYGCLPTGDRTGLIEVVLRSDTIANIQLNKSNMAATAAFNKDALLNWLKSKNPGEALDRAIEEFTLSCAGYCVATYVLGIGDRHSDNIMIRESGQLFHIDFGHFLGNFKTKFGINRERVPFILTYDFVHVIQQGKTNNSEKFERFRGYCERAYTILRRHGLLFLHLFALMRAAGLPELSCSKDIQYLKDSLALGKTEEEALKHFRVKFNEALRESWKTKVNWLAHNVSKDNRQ

Row | Structure (SMILES) | IC50 (PIK3CA (human) [1]) [nM] | IC50 (PIK3CG (human) [2]) [nM] | IC50 (PIK3CD (Human) [3]) [nM] | IC50 (PIK3CA (human) [4]) [nM] | IC50 (PIK3CG (human) [5]) [nM] | IC50 (PIK3CD (Human) [6]) [nM]
1 | Nc1nc(N2C[C@@H](F)C[C@H]2c2nc3cccc(C(F)(F)F)c3c(=O)n2-c2ccccc2)c2nc[nH]c2n1 | 3300 | 45 | 29 | 1300 | 9 | 18
2 | Nc1nc(N2CCC[C@H]2c2nc3cccc(Cl)c3c(=O)n2C2CC2)c2nc[nH]c2n1 | 8120 | 886 | 349 | 3600 | 110 | 85
3 | O=c1c2c(Cl)cccc2nc([C@@H]2C[C@H](O)CN2c2ncnc3[nH]cnc23)n1-c1ccccc1 | 4310 | 178 | 21 | 1400 | 19 | 5
4 | Cc1nc(N)nc(N2CCC[C@H]2c2nc3cccc(Cl)c3c(=O)n2N2CCOCC2)c1C#N | 1790 | 27 | 15 | 790 | 71 | 18
5 | Cc1nc(N)nc(N2CCC[C@H]2c2nc3cccc(C(F)(F)F)c3c(=O)n2-c2cncc(F)c2)c1C#N | 8740 | 92 | 56 | 4500 | 240 | 50
6 | Cc1nc(N)nc(N2CCC[C@H]2c2nc3cccc(C(F)(F)F)c3c(=O)n2-c2cccc(F)c2)c1C#N | 4440 | 164 | 37 | 890 | 82 | 17
7 | Cc1nc(N)nc(N2CCC[C@H]2c2nc3cccc(C(F)(F)F)c3c(=O)n2-c2cccnc2)c1C#N | 3840 | 82 | 27 | 540 | 180 | 24
8 | N#Cc1cnc(N)nc1N1C[C@@H](O)C[C@H]1c1nc2cccc(C(F)(F)F)c2c(=O)n1-c1ccccc1 | > 10000 | 113 | 141 | 6600 | 320 | 390
9 | Cc1nc(N)nc(N2C[C@@H](O)C[C@H]2c2nc3cccc(C(F)(F)F)c3c(=O)n2-c2cccnc2)c1C#N | > 10000 | 206 | 67 | 1800 | 220 | 960
10 | N#Cc1c(N)ncnc1N1OCC[C@H]1c1nc2cccc(Cl)c2c(=O)n1-c1ccccc1 | 3690 | 144 | 14 | 2000 | 44 | < 3
11 | Cc1nc(N)nc(N2C[C@@H](O)C[C@H]2c2nc3ccc(F)c(Cl)c3c(=O)n2-c2ccccc2)c1C#N | 1950 | 7 | 10 | 280 | 14 | 13
12 | Cc1nc(N)nc(N2CCC[C@H]2c2nc3cccc(C(F)(F)F)c3c(=O)n2-c2cncnc2)c1C#N | > 10000 | 306 | 295 | 4200 | 230 | 100
13 | N#Cc1c(N)ncnc1N1C[C@@H](F)C[C@H]1c1nc2cccc(C(F)(F)F)c2c(=O)n1-c1ccccc1 | 766 | 31 | 10 | 2400 | 55 | 8
14 | Cc1nc(N)nc(N2CCC[C@H]2c2nc3cccc(S(C)(=O)=O)c3c(=O)n2-c2ccccc2)c1C#N | 4600 | 343 | 42 | 1100 | 75 | 13
15 | COc1cccc2nc([C@@H]3CCCN3c3ncnc(N)c3C#N)n(-c3ccccc3)c(=O)c12 | > 10000 | 382 | > 10000 | > 10000 | 5200 | 76
16 | Cc1nc(N)nc(N2C[C@@H](O)C[C@H]2c2nc3cccc(C(F)(F)F)c3c(=O)n2N2CCOCC2)c1C#N | 4590 | 83 | 92 | 2000 | 100 | 66
17 | N#Cc1c(N)ncnc1N1CCC[C@H]1c1nc2cccc(C(F)(F)F)c2c(=O)n1-c1ccccc1 | > 10000 | 261 | 62 | 2800 | 140 | 12
18 | N#Cc1c(N)ncnc1N1C[C@@H](O)C[C@H]1c1nc2cccc(C(F)(F)F)c2c(=O)n1-c1cccnc1 | 3860 | 163 | 86 | 3800 | 1300 | 84
19 | Nc1nc(N2CCC[C@H]2c2nc3cccc(Cl)c3c(=O)n2-c2cccnc2)c2nc[nH]c2n1 | > 10000 | 675 | 77 | 1500 | 24 | 8
20 | Nc1nc(N2C[C@@H](O)C[C@H]2c2nc3cccc(C(F)(F)F)c3c(=O)n2-c2ccccc2)c2ncsc2n1 | 5310 | 55 | 89 | 2500 | 37 | 27
21 | Cc1ccccc1-n1c([C@@H]2CCCN2c2ncnc(N)c2C#N)nc2cccc(Cl)c2c1=O | 2200 | 27 | 13 | 5210 | 70 | < 3
